In patent US20110281812A1, “Compounds” (priority 2009, published 2011):

tested on: IL-6 production in LPS-stimulated murine spleenocytes; experiment: Inhibition of IL-6 production in LPS-stimulated murine spleenocytes in vitro; format: cell-based; conditions: Mus musculus, 50 μM concentration of the compound, read-out: inhibition of interleukin-6 (IL-6) production
Description: Test and reference substances used in an in vitro assays were dissolved in dimethyl sulfoxide (DMSO) (Sigma Chemical Co., USA) at a concentration of 50 mM and were further diluted to test concentrations in appropriate cell culture medium.
After cervical dislocation, mouse spleens were removed using sterile dissection tools. Spleens were transferred to a pre-wetted cell strainer in a 50 mL sterile conical tube and cell suspension was made by gentle puddle. Cells were centrifuged (20 min, 300×g) and resuspended in 2 mL of sterile phosphate buffered saline (PBS) (Sigma Chemical Co., USA). Red blood cells were lysed by addition of 3 mL of sterile water and occasionally gentle shaking for 1 minute. Afterwards, the tube was filled to 40 mL with DMEM medium and centrifuged (20 min, 300×g). Cells were resuspended in DMEM supplemented with 1% FBS and seeded in a 24-well plate, 1×10^6 cells per mL medium.
Final concentrations of 50 μM, 25 μM, 12.5 μM, 6.3 μM and 3.1 μM of test compounds were prepared by diluting a 50 mM DMSO stock in Dulbecco's modified Eagle medium (DMEM) (Gibco, USA) supplemented with 1% heat inactivated fetal bovine serum (FBS) (BioWest, Ringmer, United Kingdom).
Cells were pre-incubated with the test compounds for 3 h at 37° C., in an atmosphere of 5% CO2 and 90% humidity. Afterwards, cells were stimulated with 1 μg/mL lipopolysaccharide (LPS, E. coli 0111:B4, Sigma Chemical Co., USA) and incubated overnight. Concentration of IL-6 was determined in cell supernatants by sandwich ELISA using capture and detection antibodies (R&D Systems, USA) according to the manufacturer's recommendations.
Inhibition (as percentage) was calculated using the following formula:
% inhibition=[1−(concentration of IL-6 in sample−concentration of IL-6 in negative control)/(concentration of IL-6 in positive control−concentration of IL-6 in negative control)]×100.
The positive control refers to LPS-stimulated samples that were not preincubated with the compounds.
The negative control refers to unstimulated and untreated samples.

Row | SMILES | inhibition at 50 µM [%]
1 | CC[C@H]1OC(=O)[C@H](C)[C@@H](O[C@H]2C[C@@](C)(OC)[C@@H](O)[C@H](C)O2)[C@H](C)[C@@H](O[C@@H]2O[C@H](C)C[C@H](N(C)C)[C@H]2OCCCNC(C)=O)[C@](C)(O)C[C@@H](C)CN(C)[C@H](C)[C@@H](O)[C@]1(C)O [Example 1, 2′-O[3-(Acetylamino)propyl]-9-deoxo-9a-methyl-9a-aza-9a-homoerythromycin A] | > 40
2 | CC[C@H]1OC(=O)[C@H](C)[C@@H](O[C@H]2C[C@@](C)(OC)[C@@H](O)[C@H](C)O2)[C@H](C)[C@@H](O[C@@H]2O[C@H](C)C[C@H](N(C)C)[C@H]2OCCCNC(=O)C(C)C)[C@](C)(O)C[C@@H](C)CN(C)[C@H](C)[C@@H](O)[C@]1(C)O [Example 3, 2′-O-{3-[(2-Methylpropanoyl)amino]propyl}-9-deoxo-9a-methyl-9a-aza-9a-homoerythromycin A] | > 40
3 | CC[C@H]1OC(=O)[C@H](C)[C@@H](O[C@H]2C[C@@](C)(OC)[C@@H](O)[C@H](C)O2)[C@H](C)[C@@H](O[C@@H]2O[C@H](C)C[C@H](N(C)C)[C@H]2OCCCNC(=O)C(C)(C)C)[C@](C)(O)C[C@@H](C)CN(C)[C@H](C)[C@@H](O)[C@]1(C)O [Example 4, 2′-O-{3-[(2,2-Dimethylpropanoyl)amino]propyl}-9-deoxo-9a-methyl-9a-aza-9a-homoerythromycin A] | > 40
4 | CC[C@H]1OC(=O)[C@H](C)[C@@H](O[C@H]2C[C@@](C)(OC)[C@@H](O)[C@H](C)O2)[C@H](C)[C@@H](O[C@@H]2O[C@H](C)C[C@H](N(C)C)[C@H]2OCCCNC(=O)CN(CC)CC)[C@](C)(O)C[C@@H](C)CN(C)[C@H](C)[C@@H](O)[C@]1(C)O [Example 5, 2′-O-{3-[(N,N-Diethylglycyl)amino]propyl}-9-deoxo-9a-methyl-9a-aza-9a-homoerythromycin A] | > 40
5 | CC[C@H]1OC(=O)[C@H](C)[C@@H](O[C@H]2C[C@@](C)(OC)[C@@H](O)[C@H](C)O2)[C@H](C)[C@@H](O[C@@H]2O[C@H](C)C[C@H](N(C)C)[C@H]2OCCCNC(=O)c2ccncc2)[C@](C)(O)C[C@@H](C)CN(C)[C@H](C)[C@@H](O)[C@]1(C)O [Example 6, 2′-O-{3-[(4-Pyridinylcarbonyl)amino]propyl}-9-deoxo-9a-methyl-9a-aza-9a-homoerythromycin A] | > 40
6 | CC[C@H]1OC(=O)[C@H](C)[C@@H](O[C@H]2C[C@@](C)(OC)[C@@H](O)[C@H](C)O2)[C@H](C)[C@@H](O[C@@H]2O[C@H](C)C[C@H](N(C)C)[C@H]2OCCCNC(=O)[C@@H](N)Cc2ccccc2)[C@](C)(O)C[C@@H](C)CN(C)[C@H](C)[C@@H](O)[C@]1(C)O [Example 10, 2′-O-[3-(L-phenylalanylamino)propyl]-9-deoxo-9a-methyl-9a-aza-9a-homoerythromycin A] | > 40
7 | CC[C@H](C)[C@H](N)C(=O)NCCCO[C@H]1[C@H](O[C@@H]2[C@@H](C)[C@H](O[C@H]3C[C@@](C)(OC)[C@@H](O)[C@H](C)O3)[C@@H](C)C(=O)O[C@H](CC)[C@@](C)(O)[C@H](O)[C@@H](C)N(C)C[C@H](C)C[C@@]2(C)O)O[C@H](C)C[C@@H]1N(C)C [Example 11, 2′-O-[3-(L-isoleucylamino)propyl]-9-deoxo-9a-methyl-9a-aza-9a-homoerythromycin A] | > 40
8 | CC[C@H]1OC(=O)[C@H](C)[C@@H](O[C@H]2C[C@@](C)(OC)[C@@H](O)[C@H](C)O2)[C@H](C)[C@@H](O[C@@H]2O[C@H](C)C[C@H](N(C)C)[C@H]2OCCCNC(=O)[C@@H](N)CCSC)[C@](C)(O)C[C@@H](C)CN(C)[C@H](C)[C@@H](O)[C@]1(C)O [Example 12, 2′-O-[3-(L-methionylamino)propyl]-9-deoxo-9a-methyl-9a-aza-9a-homoerythromycin A] | > 40
9 | CC[C@H]1OC(=O)[C@H](C)[C@@H](O[C@H]2C[C@@](C)(OC)[C@@H](O)[C@H](C)O2)[C@H](C)[C@@H](O[C@@H]2O[C@H](C)C[C@H](N(C)C)[C@H]2OCCCNC(=O)c2cnccn2)[C@](C)(O)C[C@@H](C)CN(C)[C@H](C)[C@@H](O)[C@]1(C)O [Example 23, 2′-O-{3-[(2-Pyrazinylcarbonyl)amino]propyl}-9-deoxo-9a-methyl-9a-aza-9a-homoerythromycin A] | > 40
10 | CC[C@H]1OC(=O)[C@H](C)[C@@H](O[C@H]2C[C@@](C)(OC)[C@@H](O)[C@H](C)O2)[C@H](C)[C@@H](O[C@@H]2O[C@H](C)C[C@H](N(C)C)[C@H]2OCCCNC(=O)c2cc(C)oc2C)[C@](C)(O)C[C@@H](C)CN(C)[C@H](C)[C@@H](O)[C@]1(C)O [Example 24, 2′-O-(3-{[(2,5-Dimethyl-3-furanyl)carbonyl]amino}propyl)-9-deoxo-9a-methyl-9a-aza-9a-homoerythromycin A] | > 40
11 | CC[C@H]1OC(=O)[C@H](C)[C@@H](O[C@H]2C[C@@](C)(OC)[C@@H](O)[C@H](C)O2)[C@H](C)[C@@H](O[C@@H]2O[C@H](C)C[C@H](N(C)C)[C@H]2OCCCNC(=O)c2cc(C)n(C)c2C)[C@](C)(O)C[C@@H](C)CN(C)[C@H](C)[C@@H](O)[C@]1(C)O [Example 26, 2′-O-(3-{[(1,2,5-Trimethyl-1H-pyrrol-3-yl)carbonyl]amino}propyl)-9-deoxo-9a-methyl-9a-aza-9a-homoerythromycin A] | > 40
12 | CC[C@H]1OC(=O)[C@H](C)[C@@H](O[C@H]2C[C@@](C)(OC)[C@@H](O)[C@H](C)O2)[C@H](C)[C@@H](O[C@@H]2O[C@H](C)C[C@H](N(C)C)[C@H]2OCCCNC(=O)c2cncn2C)[C@](C)(O)C[C@@H](C)CN(C)[C@H](C)[C@@H](O)[C@]1(C)O [Example 27, 2′-O-(3-{[(1-Methyl-1H-imidazol-5-yl)carbonyl]amino}propyl)-9-deoxo-9a-methyl-9a-aza-9a-homoerythromycin A] | > 40
13 | CC[C@H]1OC(=O)[C@H](C)[C@@H](O[C@H]2C[C@@](C)(OC)[C@@H](O)[C@H](C)O2)[C@H](C)[C@@H](O[C@@H]2O[C@H](C)C[C@H](N(C)C)[C@H]2OCCCNC(=O)c2cn(C)nc2C(F)(F)F)[C@](C)(O)C[C@@H](C)CN(C)[C@H](C)[C@@H](O)[C@]1(C)O [Example 28, 2′-O-[3-({[1-Methyl-3-(trifluoromethyl)-1H-pyrazol-4-yl]carbonyl}amino)propyl]-9-deoxo-9a-methyl-9a-aza-9a-homoerythromycin A] | > 40
14 | CC[C@H]1OC(=O)[C@H](C)[C@@H](O[C@H]2C[C@@](C)(OC)[C@@H](O)[C@H](C)O2)[C@H](C)[C@@H](O[C@@H]2O[C@H](C)C[C@H](N(C)C)[C@H]2OCCCNC(=O)c2ccc(Cl)cc2)[C@](C)(O)C[C@@H](C)CN(C)[C@H](C)[C@@H](O)[C@]1(C)O [Example 29, 2′-O-(3-{[(4-Chlorophenyl)carbonyl]amino}propyl)-9-deoxo-9a-methyl-9a-aza-9a-homoerythromycin A] | > 40
15 | CC[C@H]1OC(=O)[C@H](C)[C@@H](O[C@H]2C[C@@](C)(OC)[C@@H](O)[C@H](C)O2)[C@H](C)[C@@H](O[C@@H]2O[C@H](C)C[C@H](N(C)C)[C@H]2OCCCNC(=O)c2ccccn2)[C@](C)(O)C[C@@H](C)CN(C)[C@H](C)[C@@H](O)[C@]1(C)O [Example 31, 2′-O-{3-[(2-Pyridinylcarbonyl)amino]propyl}-9-deoxo-9a-methyl-9a-aza-9a-homoerythromycin A] | > 40
